Data as given in patent US8435955B2, “Antibacterial deodorant” (priority 2008, dated 2013).

Assays:
Deodorization test 1 [1] = details: Ammonia; for Reduction: initial 100 ppm, after 30 minutes; for Reduction / Concentration after 30 minutes: 0.2 ml of 10% by weight aqueous solution; for Concentration after 30 minutes: initial concentration 100 ppm
Deodorization test 1 [2] = details: Trimethylamine; for Reduction: initial 20 ppm, after 30 minutes; for Reduction / Concentration after 30 minutes: 0.2 ml of 10% by weight aqueous solution; for Concentration after 30 minutes: initial concentration 20 ppm
Deodorization test 1 [3] = details: Methyl mercaptan; for Reduction: initial 10 ppm, after 30 minutes; for Reduction / Concentration after 30 minutes: 0.2 ml of 10% by weight aqueous solution; for Concentration after 30 minutes: initial concentration 10 ppm
Deodorization test 1 [4] = details: Formaldehyde, 0.2 ml of 10% by weight aqueous solution; for Reduction: initial 10 ppm, after 30 minutes; for Concentration after 30 minutes: initial concentration 10 ppm
Deodorization test 1 [5] = details: Acetaldehyde; for Reduction: initial 10 ppm, after 30 minutes; for Reduction / Concentration after 30 minutes: 0.2 ml of 10% by weight aqueous solution; for Concentration after 30 minutes: initial concentration 10 ppm
Deodorization test 1 [6] = details: Isovaleric acid; for Reduction: initial 10 ppm, after 30 minutes; for Reduction / Concentration after 30 minutes: 0.2 ml of 10% by weight aqueous solution; for Concentration after 30 minutes: initial concentration 10 ppm
Deodorization test 1 [7] = details: Acetic acid; for Reduction: initial 20 ppm, after 30 minutes; for Reduction / Concentration after 30 minutes: 0.2 ml of 10% by weight aqueous solution; for Concentration after 30 minutes: initial concentration 20 ppm
Deodorization test 1 [8] = details: Toluene, 0.2 ml of 10% by weight aqueous solution; for Reduction: initial 100 ppm, after 30 minutes; for Concentration after 30 minutes: initial concentration 100 ppm
Deodorization test 1 [9] = details: Styrene, 0.2 ml of 10% by weight aqueous solution; for Reduction: initial 100 ppm, after 30 minutes; for Concentration after 30 minutes: initial concentration 100 ppm

Compound | Reduction (Deodorization test 1 [1]) [%] | Concentration after 30 minutes (Deodorization test 1 [1]) [ppm] | Reduction (Deodorization test 1 [2]) [%] | Concentration after 30 minutes (Deodorization test 1 [2]) [ppm] | Reduction (Deodorization test 1 [3]) [%] | Concentration after 30 minutes (Deodorization test 1 [3]) [ppm] | Reduction (Deodorization test 1 [4]) [%] | Concentration after 30 minutes (Deodorization test 1 [4]) [ppm] | Reduction (Deodorization test 1 [5]) [%] | Concentration after 30 minutes (Deodorization test 1 [5]) [ppm] | Reduction (Deodorization test 1 [6]) [%] | Concentration after 30 minutes (Deodorization test 1 [6]) [ppm] | Reduction (Deodorization test 1 [7]) [%] | Concentration after 30 minutes (Deodorization test 1 [7]) [ppm] | Reduction (Deodorization test 1 [8]) [%] | Concentration after 30 minutes (Deodorization test 1 [8]) [ppm] | Reduction (Deodorization test 1 [9]) [%] | Concentration after 30 minutes (Deodorization test 1 [9]) [ppm] | other results
N=C(N)NCCC[C@H](N)C(=O)O [Arginine] | 10 | 90 | 5 | 19 | 0 | 10 | 0 | 10 | 10 | 9 | 0 | 10 | 15 | 17 | 0 | 100 | 0 | 100 | 
N[C@@H](CS)C(=O)O [Cysteine] | 100 | 0 | 100 | 0 | 0 | 10 | 20 | 8 | 0 | 10 | 20 | 8 | 20 | 16 | 10 | 90 | 10 | 90 | deodorizing action (in words) (Deodorization test 1 [1]): excellent deodorizing action; deodorizing action (in words) (Deodorization test 1 [2]): excellent deodorizing action
NCC(=O)O [Glycine] | 100 | 0 | 100 | 0 | 100 | 0 | 70 | 3 | 80 | 2 | 90 | 1 | 90 | 2 | 60 | 40 | 60 | 40 | deodorizing action (in words) (Deodorization test 1 [1]): excellent deodorizing action; deodorizing action (in words) (Deodorization test 1 [2]): excellent deodorizing action; deodorizing action (in words) (Deodorization test 1 [3]): excellent deodorizing action; deodorizing action (in words) (Deodorization test 1 [5]): good results; deodorizing action (in words) (Deodorization test 1 [6]): good results; deodorizing action (in words) (Deodorization test 1 [7]): good results
NCCCC[C@H](N)C(=O)O [Lysine] | 10 | 90 | 10 | 18 | 0 | 10 | 0 | 10 | 10 | 9 | 0 | 10 | 0 | 20 | 0 | 100 | 0 | 100 | 
CSCC[C@H](N)C(=O)O [Methionine] | 30 | 70 | 10 | 18 | 0 | 10 | 10 | 9 | 10 | 9 | 0 | 10 | 10 | 18 | 10 | 90 | 10 | 90 | 
O=C(O)[C@@H]1CCCN1 [Proline] | 10 | 90 | 5 | 19 | 0 | 10 | 0 | 10 | 20 | 8 | 0 | 10 | 0 | 20 | 0 | 100 | 0 | 100 | 
N[C@@H](Cc1c[nH]c2ccccc12)C(=O)O [Tryptophan] | 50 | 50 | 50 | 10 | 0 | 10 | 10 | 9 | 10 | 9 | 0 | 10 | 10 | 18 | 0 | 100 | 0 | 100 | 
CC(C)[C@H](N)C(=O)O [Valine] | 10 | 90 | 5 | 19 | 0 | 10 | 0 | 10 | 0 | 10 | 0 | 10 | 0 | 20 | 0 | 100 | 0 | 100 | 
